Assay type: in vivo, "Sprague-Dawley" SD rats
Settings: per os tube feeding, about 13 mg bromadiolone per kg (56% D1,2 / 44% D3,4), liver on D1, D3, D7, male and female rats, FIG. 2
Experimental: Separation of the configurational stereoisomers of bromadiolone is performed by high-pressure liquid chromatography (HPLC) on a LUX® Cellulose-1 chiral column (Phenomenex, Le Pecq, France) containing a chiral stationary phase constituted of particles of cellulose tris(3,5-dimethylphenyl carbamate), said particles having a mean size of 3 μm and having a mean pore size of 1000 Å. A mixture formed from acetonitrile (A) and water comprising 0.1% by volume of formic acid (B), with an A/B volume ratio of 80/20 and with a flow rate of 0.25 mL/minute in the chromatography column, is used as mobile phase. The concentration of the composition to be analysed is 1 μg of bromadiolone per millilitre of acetonitrile and the volume injected onto the column is 1 μL. Detection is performed by tandem mass spectrometry (MS/MS) in negative electrospray ionization (ESI) mode. The temperature of the nebulizer gas is 350° C. and its flow rate is 8 L/minute. The pressure of the nebulizer gas is brought to 2700 hPa. In particular, the MRM (“Multiple Reaction Monitoring”) transitions m/z 525.1→250.1 and m/z 525.1→181, corresponding to bromadiolone, are detected.
About 0.525 g (±0.025 g) of rat liver is weighed out accurately and placed in a 50 mL polypropylene tube. 10 mL of acetone are added and the suspension is homogenized using an Ultra-Turrax® homogenizer/disperser for a time of about 30 seconds. […]

Row | Compound | persistence in the liver of the rats (hepatic concentration of the diastereoisomers)
1 | O=c1oc2ccccc2c(O)c1C(CC(O)c1ccc(-c2ccc(Br)cc2)cc1)c1ccccc1 (single isomer, unassigned) [diastereoisomer D3,4] | less persistent in the liver of target rodents
2 | O=c1oc2ccccc2c(O)c1C(CC(O)c1ccc(-c2ccc(Br)cc2)cc1)c1ccccc1 (single isomer, unassigned) [diastereoisomer D1,2] | longer persistence in the liver of the rats than the persistence of said diastereoisomer D3,4

— patent US20180362487A1, “STEREOISOMER OF BROMADIOLONE, COMPOSITION AND RODENTICIDAL BAIT COMPRISING SAME, AND PROCESS FOR CONTROLLING TARGET RODENT PESTS” (priority 2015, published 2018)
